# According to patent US12371405B1, “Isoindol-sulfilimine compound and use as a sigma-2 receptor inhibitor thereof” (SHANGHAI UNIVERSITY OF MEDICINE AND HEALTH SCIENCES, priority 2024, dated 2025):
# How the values were obtained:
# sigma-2 receptor [1] = target: T1, sigma-2 receptor (Homo sapiens, UniProt Q5BJF2); assay: Sigma 2 binding assay (3H-DTG radioligand, cell membrane); details: sigma-2R cell membrane, 2 hours at room temperature; for IC50: read-out: Sigma 2 Binding Assay Summary IC50; for Ki: read-out: Sigma 2 Binding Assay Summary Ki
# T1 sequence (Q5BJF2 whole entry, species assumed): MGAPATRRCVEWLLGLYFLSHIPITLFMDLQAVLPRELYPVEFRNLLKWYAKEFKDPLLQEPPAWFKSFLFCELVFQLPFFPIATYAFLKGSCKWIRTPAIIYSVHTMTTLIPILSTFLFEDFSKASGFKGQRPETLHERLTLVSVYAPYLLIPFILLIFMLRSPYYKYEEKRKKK
# Description: (§1) The pharmacodynamic test methods employed in this embodiment are those known to those skilled in the art; the sigma-2 receptor inhibitory activity assay kit employed in this embodiment is commercially available to those skilled in the art. sigmal/sigma-2 receptor affinity activity test:
# (§2) In a 96-well plate, eight 4-fold dilutions of the test and reference compounds were made, and 1 μL of each compound was added to each well, and the wells were rearranged. The reference compound Haloperidol was added at a starting concentration of 1 μM, 1 μL of DMSO was added to the high signal control wells (High control), and 1 μL of Haloperidol was added to the low signal control wells (Low control) at a concentration of 200 μM (final concentration of 1 μM), and 100 μL of desired concentration of sigma-1R or sigma-2R cell membrane, diluted in 50 mM Tris-HCl (pH 7.4, Sigma, Cat: T1503-1 KG) was added to each well and 100 μL of desired concentration of 3H-DTG diluted in 50 mM Tris-HCl (pH 7.4) was added to each well, the 96-well plate was sealed, and incubated for 2 hours at room temperature on a shaker at 300 rpm. Simultaneously, GF/C filter plates (PerkinElmer, Cat: NET986250UC) were soaked with 0.3% PEI (Poly ethyleneimine, Sigma, Cat: P3143). After incubation, the cells were collected onto GF/C filter plates with a cell collector (PerkinElmer, model: C961961), washed 4 times with 50 mM Tris-HCl (pH 7.4) wash buffer, and then dried in an oven at 50° C. for 1 h. The bottom of the dried GF/C filter plates were sealed with a membrane, and 50 μL of scintillation solution was added into each well and sealed, and the cells were read by using a Microbeta (PerkinElmer, model: 2450 Microplate Counter). The percentage of activity was calculated using Microsoft Excel software with the formula: % Activity=100×(Sample RawValue−High Control Average)/(Low Control Average-High Control Average), using GraphPad Prism 5 data analysis software. The Dose-response-Stimulation-log [antagonist] vs. response-Variable slope model was selected for fitting analysis to obtain the IC50 value of each tested sample, and the results are shown in Table 1.
# sigma-1 receptor = sigma-1 receptor (Homo sapiens, UniProt Q99720); assay: Sigma1 binding assay (3H-DTG radioligand, cell membrane); details: sigma-1R cell membrane, 2 hours at room temperature; for IC50: read-out: Sigma1 Binding Assay Summary IC50; for Ki: read-out: Sigma1 Binding Assay Summary Ki
# sigma-1 receptor, sequence (Q99720 whole entry): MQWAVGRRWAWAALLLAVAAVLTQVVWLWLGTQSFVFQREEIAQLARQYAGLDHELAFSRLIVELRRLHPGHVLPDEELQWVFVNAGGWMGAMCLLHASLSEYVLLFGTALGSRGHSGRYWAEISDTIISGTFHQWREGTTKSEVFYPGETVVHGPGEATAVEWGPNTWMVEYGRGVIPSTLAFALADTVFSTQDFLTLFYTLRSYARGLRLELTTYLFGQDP
# Description: as §1, §2
# [2] = tested on: cerebrospinal fluid β-amyloid (aβ); details: at 1 h after administration; cited from earlier work
# [3] = cited from earlier work
# sigma-2 receptor [4] = target: T1, sigma-2 receptor; details: cited from earlier work
Structure (SMILES),IC50 (sigma-2 receptor [1]) [µM],Ki (sigma-2 receptor [1]) [µM],IC50 (sigma-1 receptor) [µM],Ki (sigma-1 receptor) [µM],concentration of cerebrospinal fluid β-amyloid (aβ) [2],oral bioavailability [3],sigma-1 and sigma-2 receptor selectivity (sigma-2 receptor [4])
"CC(=O)N=S(=O)(CCCCF)c1ccc2c(c1)CN(C(C)(C)CCc1ccc(O)c(OC(C)(C)C)c1)C2 (stereo not shown) [Compound 15, N-((2-(4-(3-(tert-butoxy)-4-hydroxyphenyl)-2-methylbutan-2-yl)isoindol-5-yl)(fluoro-butyl)(oxo)-26-thioimido)acetamide]",> 0.5,> 0.5,> 5,> 5,–,–,–
"CCC(=O)N=S(=O)(CC)c1ccc2c(c1)CN(C(C)(C)CCc1ccc(O)c(OC(C)(C)C)c1)C2 (stereo not shown) [Compound 5, N-((2-(4-(3-(tert-butoxy)-4-hydroxyphenyl)-2-methylbutan-2-yl)isoindol-5-yl)(ethyl)(oxo)-16-thioimido) propionamide]",> 0.1,> 0.1,> 1,> 1,–,–,–
"CCCS(=O)(=NC(C)=O)c1ccc2c(c1)CN(C(C)(C)CCc1ccc(O)c(OC(C)(C)C)c1)C2 (stereo not shown) [Compound 7, N-((2-(4-(3-(tert-butoxy)-4-hydroxyphenyl)-2-methylbutan-2-yl)isoindol-5-yl)(propyl)(oxo)-26-thioimino)acetamide]",> 0.5,> 0.5,> 5,> 5,–,–,–
CCS(=N)(=O)c1ccc2c(c1)CN(C(C)(C)CCc1ccc(O)c(OC(C)(C)C)c1)C2 (stereo not shown) [Compound 17],< 0.1,< 0.1,> 0.1,> 0.1,–,–,–
CCCS(=N)(=O)c1ccc2c(c1)CN(C(C)(C)CCc1ccc(O)c(OC(C)(C)C)c1)C2 (stereo not shown) [Compound 18],> 0.5,> 0.5,> 5,> 5,–,–,–
CCCCS(=N)(=O)c1ccc2c(c1)CN(C(C)(C)CCc1ccc(O)c(OC(C)(C)C)c1)C2 (stereo not shown) [Compound 19],> 0.1,> 0.1,> 1,> 1,–,–,–
"CC(=O)N=S(=O)(CF)c1ccc2c(c1)CN(C(C)(C)CCc1ccc(O)c(OC(C)(C)C)c1)C2 (stereo not shown) [Compound 13, N-((2-(4-(3-(tert-butoxy)-4-hydroxyphenyl)-2-methylbutan-2-yl)isoindol-5-yl)(fluoromethyl)(oxo)-26-thioimido)acetamide]",> 0.1,> 0.1,> 1,> 1,–,–,–
CC(=O)N=S(=O)(CCCF)c1ccc2c(c1)CN(C(C)(C)CCc1ccc(O)c(OC(C)(C)C)c1)C2 (stereo not shown) [Compound 14],> 0.5,> 0.5,> 5,> 5,–,–,–
CC(C)(C)Oc1cc(CCC(C)(C)N2Cc3ccc(S(=N)(=O)CCCCF)cc3C2)ccc1O (stereo not shown) [Compound 22],> 0.5,> 0.5,> 5,> 5,–,–,–
CC(C)(C)Oc1cc(CCC(C)(C)N2Cc3ccc(S(=N)(=O)CF)cc3C2)ccc1O (stereo not shown) [Compound 20],< 0.1,< 0.1,> 0.1,> 0.1,–,–,–
"CCCC(=O)N=S(=O)(CC)c1ccc2c(c1)CN(C(C)(C)CCc1ccc(O)c(OC(C)(C)C)c1)C2 (stereo not shown) [Compound 6, N-((2-(4-(3-(tert-butoxy)-4-hydroxyphenyl)-2-methylbutan-2-yl)isoindol-5-yl)(ethyl)(oxo)-26-thioimido) butyramide]",> 0.5,> 0.5,> 5,> 5,–,–,–
"CC(=O)N=S(C)(=O)c1ccc2c(c1)CN(C(C)(C)CCc1ccc(O)c(OC(C)(C)C)c1)C2 (stereo not shown) [Compound 1, N-((2-(4-(3-(tert-butoxy)-4-hydroxyphenyl)-2-methylbutan-2-yl)isoindol-5-yl)(methyl)(oxo)-λ6-thioimido)acetamide]",> 0.1,> 0.1,> 1,> 1,–,–,–
CCCCS(=O)(=NC(C)=O)c1ccc2c(c1)CN(C(C)(C)CCc1ccc(O)c(OC(C)(C)C)c1)C2 (stereo not shown) [Compound 10],> 0.5,> 0.5,> 5,> 5,–,–,–
"CCC(=O)N=S(C)(=O)c1ccc2c(c1)CN(C(C)(C)CCc1ccc(O)c(OC(C)(C)C)c1)C2 (stereo not shown) [Compound 2, N-((2-(4-(3-(tert-butoxy)-4-hydroxyphenyl)-2-methylbutan-2-yl)isoindol-5-yl)(methyl)(oxo)-26-thioimido) propionamide]",> 0.1,> 0.1,> 1,> 1,–,–,–
"CCCCS(=O)(=NC(=O)CC)c1ccc2c(c1)CN(C(C)(C)CCc1ccc(O)c(OC(C)(C)C)c1)C2 (stereo not shown) [Compound 11, N-((2-(4-(3-(tert-butoxy)-4-hydroxyphenyl)-2-methylbutan-2-yl)isoindol-5-yl)(butyl)(oxo)-26-thioimido) propionamide]",> 0.5,> 0.5,> 5,> 5,–,–,–
"CCCC(=O)N=S(C)(=O)c1ccc2c(c1)CN(C(C)(C)CCc1ccc(O)c(OC(C)(C)C)c1)C2 (stereo not shown) [Compound 3, N-((2-(4-(3-(tert-butoxy)-4-hydroxyphenyl)-2-methylbutan-2-yl)isoindol-5-yl)(methyl)(oxo)-26-thioimido) butanamide]",> 0.5,> 0.5,> 5,> 5,–,–,–
CC(C)(C)Oc1cc(CCC(C)(C)N2Cc3ccc(S(C)(=O)=O)cc3C2)ccc1O [CT1812],–,–,–,–,increase,poor,poor
"CCCS(=O)(=NC(=O)CC)c1ccc2c(c1)CN(C(C)(C)CCc1ccc(O)c(OC(C)(C)C)c1)C2 (stereo not shown) [Compound 8, N-((2-(4-(3-(tert-butoxy)-4-hydroxyphenyl)-2-methylbutan-2-yl)isoindol-5-yl)(propyl)(oxo)-26-thioimido) propionamide]",> 0.5,> 0.5,> 5,> 5,–,–,–
"CCS(=O)(=NC(C)=O)c1ccc2c(c1)CN(C(C)(C)CCc1ccc(O)c(OC(C)(C)C)c1)C2 (stereo not shown) [Compound 4, N-((2-(4-(3-(tert-butoxy)-4-hydroxyphenyl)-2-methylbutan-2-yl)isoindol-5-yl)(ethyl)(oxo)-26-thioimido)acetamide]",> 0.1,> 0.1,> 1,> 1,–,–,–
CC(C)(C)Oc1cc(CCC(C)(C)N2Cc3ccc(S(C)(=N)=O)cc3C2)ccc1O (stereo not shown) [Compound 16],< 0.1,< 0.1,> 0.1,> 0.1,–,–,–
CC(C)(C)Oc1cc(CCC(C)(C)N2Cc3ccc(S(=N)(=O)CCCF)cc3C2)ccc1O (stereo not shown) [Compound 21],> 0.5,> 0.5,> 5,> 5,–,–,–
"CCCCS(=O)(=NC(=O)CCC)c1ccc2c(c1)CN(C(C)(C)CCc1ccc(O)c(OC(C)(C)C)c1)C2 (stereo not shown) [Compound 12, N-((2-(4-(3-(tert-butoxy)-4-hydroxyphenyl)-2-methylbutan-2-yl)isoindol-5-yl)(butyl)(oxo)-26-thiimido) butyramide]",> 0.5,> 0.5,> 5,> 5,–,–,–
"CCCC(=O)N=S(=O)(CCC)c1ccc2c(c1)CN(C(C)(C)CCc1ccc(O)c(OC(C)(C)C)c1)C2 (stereo not shown) [Compound 9, N-((2-(4-(3-(tert-butoxy)-4-hydroxyphenyl)-2-methylbutan-2-yl)isoindol-5-yl)(propyl)(oxo)-26-thioimido) butanamide]",> 0.5,> 0.5,> 5,> 5,–,–,–
